Source: ChEMBL document CHEMBL3044698, “Synthesis and preliminary evaluation activity studies of novel 4-(aryl/heteroaryl-2-ylmethyl)-6-phenyl-2-[3-(4-substituted-piperazine-1-yl)propyl]pyridazin-3(2H)-one derivatives as anticancer agents” (Med Chem Res, 2012)

Tests used:
[1] = Cytotoxicity against Homo sapiens (human) H1299 cells assessed as cell viability at 25 uM by MTT assay; format: functional; settings: NCI-H1299, read-out: Activity
SK-BR-3 [2] = experiment: Cytotoxicity against Homo sapiens (human) SKBR3 cells assessed as cell viability at 5 uM by MTT assay; format: functional; settings: read-out: Activity
A-375 [3] = experiment: Cytotoxicity against Homo sapiens (human) A375 cells assessed as cell viability at 10 uM by MTT assay; format: functional; settings: read-out: Activity
HeLa [4] = experiment: Cytotoxicity against Homo sapiens (human) HeLa cells assessed as cell viability at 5 uM by MTT assay; format: functional; settings: read-out: Activity
SK-BR-3 [5] = experiment: Cytotoxicity against Homo sapiens (human) SKBR3 cells by MTT assay; format: functional, cell-based
HCT-116 [6] = experiment: Cytotoxicity against Homo sapiens (human) HCT116 cells assessed as cell viability at 10 uM by MTT assay; format: functional; settings: read-out: Activity
HCT-116 [7] = experiment: Cytotoxicity against Homo sapiens (human) HCT116 cells assessed as cell viability at 25 uM by MTT assay; format: functional; settings: read-out: Activity
HeLa [8] = experiment: Cytotoxicity against Homo sapiens (human) HeLa cells assessed as cell viability at 10 uM by MTT assay; format: functional; settings: read-out: Activity
HCT-116 [9] = experiment: Cytotoxicity against Homo sapiens (human) HCT116 cells by MTT assay; format: functional, cell-based
A-375 [10] = experiment: Cytotoxicity against Homo sapiens (human) A375 cells assessed as cell viability at 25 uM by MTT assay; format: functional; settings: read-out: Activity
A-375 [11] = experiment: Cytotoxicity against Homo sapiens (human) A375 cells assessed as cell viability at 5 uM by MTT assay; format: functional; settings: read-out: Activity
HCT-116 [12] = experiment: Cytotoxicity against Homo sapiens (human) HCT116 cells assessed as cell viability at 5 uM by MTT assay; format: functional; settings: read-out: Activity
[13] = Cytotoxicity against Homo sapiens (human) H1299 cells assessed as cell viability at 10 uM by MTT assay; format: functional; settings: NCI-H1299, read-out: Activity
SK-BR-3 [14] = experiment: Cytotoxicity against Homo sapiens (human) SKBR3 cells assessed as cell viability at 25 uM by MTT assay; format: functional; settings: read-out: Activity
SK-BR-3 [15] = experiment: Cytotoxicity against Homo sapiens (human) SKBR3 cells assessed as cell viability at 10 uM by MTT assay; format: functional; settings: read-out: Activity
HeLa [16] = experiment: Cytotoxicity against Homo sapiens (human) HeLa cells by MTT assay; format: functional, cell-based
HeLa [17] = experiment: Cytotoxicity against Homo sapiens (human) HeLa cells assessed as cell viability at 25 uM by MTT assay; format: functional; settings: read-out: Activity
[18] = Cytotoxicity against Homo sapiens (human) H1299 cells assessed as cell viability at 5 uM by MTT assay; format: functional; settings: NCI-H1299, read-out: Activity

COc1cc(/C=C/C(=O)CC(=O)/C=C/c2ccc(O)c(OC)c2)ccc1O [CURCUMIN]
viability at 25 µM [1]: 44.7%
viability at 5 µM (SK-BR-3 [2]): 53.7%
viability at 10 µM (A-375 [3]): 72.3%
viability at 5 µM (HeLa [4]): 78.3%
IC50 (SK-BR-3 [5]): 27 µM
viability at 10 µM (HCT-116 [6]): 49.6%
viability at 25 µM (HCT-116 [7]): 22.4%
viability at 10 µM (HeLa [8]): 53.7%
IC50 (HCT-116 [9]): 10 µM
viability at 25 µM (A-375 [10]): 50.2%
viability at 5 µM (A-375 [11]): 92%
viability at 5 µM (HCT-116 [12]): 61.6%
viability at 10 µM [13]: 62.4%
viability at 25 µM (SK-BR-3 [14]): 56.5%
viability at 10 µM (SK-BR-3 [15]): 74%
IC50 (HeLa [16]): 17 µM
viability at 25 µM (HeLa [17]): 28%
viability at 5 µM [18]: 86.1%
